From patent publication US20200017496A1 (priority 2017, published 2020)
Read-outs that look alike come from different tables or passages of the source.

Columns and labels:
[1] = biological target: T1, OXA-23 (Acinetobacter baumannii, UniProt Q9L4P2); assay: biochemical
T1 construct: made in house; host or cells: E. coli

[2] = biological target: T2, KPC-2 (Klebsiella pneumoniae, UniProt Q9F663); assay: biochemical
T2 construct: made in house; host or cells: E. coli

[3] = biological target: OXA-51 (Acinetobacter baumannii, UniProt Q5QT35)
Chain of OXA-51 (Q5QT35 26-274): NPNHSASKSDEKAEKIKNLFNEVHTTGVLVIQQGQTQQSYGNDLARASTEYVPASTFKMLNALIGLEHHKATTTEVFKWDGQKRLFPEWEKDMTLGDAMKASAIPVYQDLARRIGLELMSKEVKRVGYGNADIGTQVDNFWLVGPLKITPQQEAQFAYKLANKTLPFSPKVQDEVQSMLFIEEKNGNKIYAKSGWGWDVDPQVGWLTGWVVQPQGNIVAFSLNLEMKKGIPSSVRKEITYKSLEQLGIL
Description: (§1) Method 1: β-Lactamase Inhibitory Activity, Determination of IC50 (Table 1)
(§2) Enzymes were cloned in E. coli expression vector, expressed and purified in house using classical procedures. […] After 30 min of pre-incubation at room temperature, 155 μL of NCF (100 μM final) were finally added in each well. […] Enzyme activity was obtained by subtracting the background from the final signal, and was converted to enzyme inhibition using non inhibited wells. IC50 curves were fitted to a classical Langmuir equilibrium model with Hill slope using XLFIT (IDBS).

[4] = Rat intraduodenal bioavailability determination (Method 3); format: in vivo, Sprague-Dawley (SD) rats; settings: male, Sprague-Dawley, AF1 titrated in plasma
[5] = biological target: T3, OXA-15 (Pseudomonas aeruginosa, UniProt Q51574); assay: biochemical
T3 construct: made in house; host or cells: E. coli
T3 sequence (Q51574 22-275): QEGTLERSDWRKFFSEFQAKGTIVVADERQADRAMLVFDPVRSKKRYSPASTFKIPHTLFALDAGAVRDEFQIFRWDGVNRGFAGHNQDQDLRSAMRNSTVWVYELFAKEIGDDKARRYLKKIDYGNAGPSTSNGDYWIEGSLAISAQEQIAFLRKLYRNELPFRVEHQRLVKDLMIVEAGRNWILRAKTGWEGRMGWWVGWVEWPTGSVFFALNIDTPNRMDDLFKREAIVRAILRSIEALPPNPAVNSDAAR

[6] = Mouse oral bioavailability determination, CEFIXIME/Example 3 combination (Method 4); design: species or system Swiss Mouse; settings: male, Swiss; Mouse; intravenous 30 mg/kg; AF1 titrated in plasma; read-out: AUC0-∞
Description: Water and food were available ad libitum throughout the study. Mouse were handled in accordance with the institutional and national guidelines for the care and use of laboratory animals. […] Drugs were administered by oral gavage using feeding needle. […] Plasma samples were stored at -80° C. until bioanalysis. […] Plasma samples bioanalysis and data analysis The plasma samples (20 μl) were thawed at 0° C. […] Standard samples were prepared by spiking the blank plasma into concentrations 10-5 000 ng/ml and otherwise treated as the samples. […] Mass spectrometric detection involved electrospray ionization in the negative mode followed by multiple reaction monitoring of the drugs and internal standard transitions. Actual drug concentrations were deduced from interpolation of the standard curve. The pharmacokinetic parameters were calculated using XLfit (IDBS) and Excel (Microsoft) software, using standard non-compartmental methods. The intraduodenal bioavailability was calculated by dividing the AUC obtained from the intraduodenal administration by the AUC obtained from the intravenous administration.

[7] = biological target: T4, SHV-12 (Klebsiella pneumoniae, UniProt P0AD64, E235K/G234S/L31Q); assay: β-lactamase inhibitory activity, IC50 (nitrocefin hydrolysis); format: biochemical
T4 construct: made in house; host or cells: E. coli
T4 sequence (P0AD64 22-286 L31Q/G234S/E235K): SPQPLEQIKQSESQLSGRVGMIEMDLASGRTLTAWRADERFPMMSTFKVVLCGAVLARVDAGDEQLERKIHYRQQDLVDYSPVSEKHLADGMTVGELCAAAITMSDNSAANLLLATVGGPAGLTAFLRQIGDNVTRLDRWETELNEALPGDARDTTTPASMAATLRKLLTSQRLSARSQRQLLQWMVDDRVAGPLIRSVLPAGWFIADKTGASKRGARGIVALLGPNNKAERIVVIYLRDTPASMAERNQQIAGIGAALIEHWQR

[8] = biological target: T5, TEM-1 (Escherichia coli, UniProt P62593); assay: as above; format: biochemical
T5 construct: made in house; host or cells: E. coli
T5 sequence (P62593 24-286 limits assumed): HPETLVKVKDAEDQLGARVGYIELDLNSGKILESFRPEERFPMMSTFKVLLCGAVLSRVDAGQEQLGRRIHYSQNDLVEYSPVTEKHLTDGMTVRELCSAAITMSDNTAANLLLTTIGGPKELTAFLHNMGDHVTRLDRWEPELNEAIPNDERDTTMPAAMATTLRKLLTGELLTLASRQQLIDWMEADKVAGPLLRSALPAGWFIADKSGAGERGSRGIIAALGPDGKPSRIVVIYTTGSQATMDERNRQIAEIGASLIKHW

[9] = biological target: PAE ampC (Pseudomonas aeruginosa, UniProt P24735); assay: biochemical
Chain of PAE ampC (P24735 27-397): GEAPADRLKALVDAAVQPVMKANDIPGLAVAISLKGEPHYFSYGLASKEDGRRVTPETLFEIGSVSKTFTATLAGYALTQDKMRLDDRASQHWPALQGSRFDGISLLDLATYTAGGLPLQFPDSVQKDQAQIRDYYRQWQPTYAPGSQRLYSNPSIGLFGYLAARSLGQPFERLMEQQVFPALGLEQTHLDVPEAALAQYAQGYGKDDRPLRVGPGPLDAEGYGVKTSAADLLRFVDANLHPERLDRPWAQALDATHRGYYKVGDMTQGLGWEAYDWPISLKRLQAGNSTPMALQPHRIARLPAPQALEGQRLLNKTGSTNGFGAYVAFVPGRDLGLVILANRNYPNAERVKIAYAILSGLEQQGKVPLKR
Description: as §1, §2

[10] = biological target: T6, OXA-40 (Acinetobacter baumannii, UniProt Q8RLA6); assay: biochemical
T6 construct: made in house; host or cells: E. coli
T6 sequence (Q8RLA6 entry or part of it): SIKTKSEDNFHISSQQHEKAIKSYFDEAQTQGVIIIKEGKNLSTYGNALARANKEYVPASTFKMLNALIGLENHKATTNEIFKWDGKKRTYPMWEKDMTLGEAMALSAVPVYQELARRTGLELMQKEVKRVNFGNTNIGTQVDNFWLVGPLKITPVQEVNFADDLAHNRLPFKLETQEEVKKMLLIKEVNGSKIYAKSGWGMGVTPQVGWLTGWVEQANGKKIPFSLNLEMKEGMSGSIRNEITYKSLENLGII
Description: as §1, §2

[11] = biological target: T7, P99 ampC (Enterobacter cloacae, UniProt P05364); assay: biochemical
T7 construct: made in house; host or cells: E. coli
T7 sequence (P05364 21-381): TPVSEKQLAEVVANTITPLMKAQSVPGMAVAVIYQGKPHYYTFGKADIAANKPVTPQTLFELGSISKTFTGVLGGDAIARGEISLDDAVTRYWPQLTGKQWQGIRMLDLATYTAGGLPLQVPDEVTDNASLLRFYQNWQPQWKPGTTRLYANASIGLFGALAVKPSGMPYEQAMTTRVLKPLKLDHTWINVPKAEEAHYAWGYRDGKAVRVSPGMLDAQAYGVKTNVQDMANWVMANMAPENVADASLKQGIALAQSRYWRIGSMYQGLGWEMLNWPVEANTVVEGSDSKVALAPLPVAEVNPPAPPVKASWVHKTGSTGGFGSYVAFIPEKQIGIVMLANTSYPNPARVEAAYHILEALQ
Description: as §1, §2

[12] = biological target: SAU PC1 (Staphylococcus aureus, UniProt P00807); assay: biochemical
Chain of SAU PC1 (P00807 25-281): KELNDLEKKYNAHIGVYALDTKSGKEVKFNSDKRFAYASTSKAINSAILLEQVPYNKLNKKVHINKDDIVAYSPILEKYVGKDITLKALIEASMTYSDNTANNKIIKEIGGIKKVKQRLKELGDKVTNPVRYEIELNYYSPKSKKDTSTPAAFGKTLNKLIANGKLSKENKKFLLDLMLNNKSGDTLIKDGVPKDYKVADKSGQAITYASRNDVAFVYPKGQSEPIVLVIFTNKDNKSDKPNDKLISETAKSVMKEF
Description: as §1, §2

[13] = biological target: T8, SHV-1 (Klebsiella pneumoniae, UniProt P0AD64); assay: biochemical
T8 construct: made in house; host or cells: E. coli
T8 sequence (P0AD64 22-286): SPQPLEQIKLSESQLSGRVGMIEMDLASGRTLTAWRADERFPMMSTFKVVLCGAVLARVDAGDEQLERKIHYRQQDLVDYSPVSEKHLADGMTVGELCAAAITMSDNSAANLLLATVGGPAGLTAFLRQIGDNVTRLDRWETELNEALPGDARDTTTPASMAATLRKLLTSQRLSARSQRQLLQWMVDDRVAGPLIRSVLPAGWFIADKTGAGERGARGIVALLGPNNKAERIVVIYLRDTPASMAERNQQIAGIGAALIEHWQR

[14] = biological target: T9, OXA-11 (Pseudomonas aeruginosa, UniProt Q06778); assay: β-lactamase inhibitory activity, IC50 (nitrocefin hydrolysis); format: biochemical
T9 construct: made in house; host or cells: E. coli
T9 sequence (Q06778 21-266): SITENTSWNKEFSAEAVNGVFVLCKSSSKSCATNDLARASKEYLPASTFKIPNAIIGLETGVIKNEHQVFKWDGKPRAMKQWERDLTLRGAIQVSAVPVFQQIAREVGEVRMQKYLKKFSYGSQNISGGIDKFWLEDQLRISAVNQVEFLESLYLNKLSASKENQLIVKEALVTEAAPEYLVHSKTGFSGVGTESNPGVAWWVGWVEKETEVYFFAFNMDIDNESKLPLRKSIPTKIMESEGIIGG
Description: as §1, §2

[15] = biological target: CMY-37 (Citrobacter freundii); assay: as above; format: biochemical
Chain of CMY-37 (Citrobacter freundii) (A0A9R8 21-381): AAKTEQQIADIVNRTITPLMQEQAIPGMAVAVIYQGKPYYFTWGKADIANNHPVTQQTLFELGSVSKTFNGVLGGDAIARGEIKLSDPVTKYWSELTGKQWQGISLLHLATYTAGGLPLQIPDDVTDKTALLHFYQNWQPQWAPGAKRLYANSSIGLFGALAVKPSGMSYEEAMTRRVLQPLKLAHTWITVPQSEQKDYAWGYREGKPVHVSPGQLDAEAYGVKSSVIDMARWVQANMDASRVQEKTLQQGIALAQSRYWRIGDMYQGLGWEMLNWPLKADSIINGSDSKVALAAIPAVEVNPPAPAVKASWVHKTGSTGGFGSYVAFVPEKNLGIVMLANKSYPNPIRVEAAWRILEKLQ
Description: as §1, §2

[16] = biological target: T10, OXA-58 (Acinetobacter baumannii, UniProt Q2TR58); assay: as above; format: biochemical
T10 construct: made in house; host or cells: E. coli
T10 sequence (Q2TR58 19-280, species assumed): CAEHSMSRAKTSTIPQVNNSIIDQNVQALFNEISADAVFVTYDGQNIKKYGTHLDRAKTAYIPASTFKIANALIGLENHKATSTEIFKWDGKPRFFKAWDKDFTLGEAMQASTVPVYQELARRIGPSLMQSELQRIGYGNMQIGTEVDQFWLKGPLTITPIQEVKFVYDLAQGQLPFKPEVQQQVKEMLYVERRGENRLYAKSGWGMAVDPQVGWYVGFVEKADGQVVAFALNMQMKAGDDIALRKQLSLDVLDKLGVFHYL
Description: as §1, §2

[17] = biological target: T11, OXA-1 (Escherichia coli, UniProt P13661); assay: biochemical
T11 construct: made in house; host or cells: E. coli
T11 sequence (P13661 26-276): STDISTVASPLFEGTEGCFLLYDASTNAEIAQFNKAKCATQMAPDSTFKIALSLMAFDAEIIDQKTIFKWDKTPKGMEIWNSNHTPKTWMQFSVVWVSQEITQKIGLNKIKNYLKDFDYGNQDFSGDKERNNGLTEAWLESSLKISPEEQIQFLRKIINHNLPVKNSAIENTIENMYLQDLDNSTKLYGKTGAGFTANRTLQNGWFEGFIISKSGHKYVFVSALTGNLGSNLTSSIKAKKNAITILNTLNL

[18] = biological target: T12, OXA-48 (Klebsiella pneumoniae, UniProt Q6XEC0); assay: biochemical
T12 construct: made in house; host or cells: E. coli
T12 sequence (Q6XEC0 23-265 limits assumed): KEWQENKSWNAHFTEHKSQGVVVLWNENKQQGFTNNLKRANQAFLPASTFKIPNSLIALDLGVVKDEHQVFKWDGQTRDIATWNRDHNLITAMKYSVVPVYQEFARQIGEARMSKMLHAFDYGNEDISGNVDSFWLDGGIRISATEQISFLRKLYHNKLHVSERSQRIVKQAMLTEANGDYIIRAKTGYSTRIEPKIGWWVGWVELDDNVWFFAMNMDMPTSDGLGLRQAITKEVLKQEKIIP

[19] = biological target: T13, CTX-M-15 (Escherichia coli, UniProt Q9EXV5); assay: biochemical
T13 construct: made in house; host or cells: E. coli
T13 sequence (Q9EXV5 entry or part of it): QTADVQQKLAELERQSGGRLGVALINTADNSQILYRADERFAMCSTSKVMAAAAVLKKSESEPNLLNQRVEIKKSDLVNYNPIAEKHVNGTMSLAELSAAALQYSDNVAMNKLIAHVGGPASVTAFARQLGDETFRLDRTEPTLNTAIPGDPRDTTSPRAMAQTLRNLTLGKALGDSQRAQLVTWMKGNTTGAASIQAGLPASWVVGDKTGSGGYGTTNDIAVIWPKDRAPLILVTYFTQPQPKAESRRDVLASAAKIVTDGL

[20] = tested on: Proteus mirabilis (PMI) isolates; assay: microbe, parasite or virus in culture; format: cell-based
Description: (§3) Method 2: MIC of Compounds Alone and Combined with Antibacterials Against Bacterial Isolates.
(§4) Compounds of the present invention were assessed against genotyped bacterial strains (Table 3, 4) alone or in combination with an antibacterial (Table 2). […] Log phase bacterial suspensions were adjusted to a final density of 5·10^5 CFU/mL in cation-adjusted Mueller-Hinton broth (ca-MHB; Becton-Dickinson and Company) and added to each well (98 μL). Microplates were incubated for 16-20 h at 35° C. in ambient air. The MIC of the compounds was defined as the lowest concentration of said compounds that prevented bacterial growth as read by visual inspection. The MIC of ATB at each compound concentration was defined as the lowest concentration of ATB that prevented bacterial growth as read by visual inspection.

[21] = tested on: Serratia marcescens (SMA) isolates; assay: MIC of compounds alone and combined with antibacterials, broth microdilution (CLSI); format: cell-based; settings: Serratia marcescens
Description: as §3, §4

[22] = tested on: Providencia stuartii (PST) isolates; assay: as above; format: cell-based; settings: Providencia stuartii
Description: as §3, §4

[23] = tested on: Escherichia coli (ECO) isolates; assay: as above; format: cell-based; settings: Escherichia coli, alone
Description: as §3, §4

[24] = tested on: Citrobacter freundii (CFR) isolates; assay: as above; format: cell-based; settings: Citrobacter freundii
Description: as §3, §4

[25] = tested on: Klebsiella pneumoniae (KPN) isolates; assay: as above; format: cell-based
Description: as §3, §4

[26] = tested on: Enterobacter aerogenes (EAE) isolates; assay: as above; format: cell-based; settings: Klebsiella aerogenes
Description: as §3, §4

T1 sequence (Q9L4P2 18-273): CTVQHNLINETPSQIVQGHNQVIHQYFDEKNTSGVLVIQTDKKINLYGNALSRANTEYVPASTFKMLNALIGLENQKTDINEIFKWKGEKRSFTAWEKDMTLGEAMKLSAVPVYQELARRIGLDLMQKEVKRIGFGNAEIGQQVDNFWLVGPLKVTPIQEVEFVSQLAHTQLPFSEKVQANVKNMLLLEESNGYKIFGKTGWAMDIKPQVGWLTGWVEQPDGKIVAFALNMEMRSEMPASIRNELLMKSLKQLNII
T2 sequence (Q9F663 25-293 limits assumed): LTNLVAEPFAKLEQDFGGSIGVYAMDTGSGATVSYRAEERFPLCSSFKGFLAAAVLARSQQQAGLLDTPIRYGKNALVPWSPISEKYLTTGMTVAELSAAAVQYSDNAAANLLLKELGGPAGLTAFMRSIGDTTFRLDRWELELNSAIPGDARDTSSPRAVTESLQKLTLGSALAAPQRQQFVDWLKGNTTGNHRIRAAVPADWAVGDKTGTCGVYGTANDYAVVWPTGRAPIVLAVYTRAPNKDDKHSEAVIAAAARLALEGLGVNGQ

| SMILES | IC50 [1] [nM] | IC50 [2] [nM] | IC50 [5] [nM] | IC50 [7] [nM] | IC50 [9] [nM] | IC50 [10] [nM] | IC50 [11] [nM] | IC50 [12] [nM] | IC50 [13] [nM] | IC50 [14] [nM] | IC50 [15] [nM] | IC50 [16] [nM] | IC50 [17] [nM] | IC50 [18] [nM] | IC50 [19] [nM] | further results |
| --- | --- | --- | --- | --- | --- | --- | --- | --- | --- | --- | --- | --- | --- | --- | --- | --- |
| NC(=O)[C@@H]1CC[C@@H]2CN1C(=O)N2OC(F)(F)C(=O)[O-].[Na+] [AF1] | 1700 | 40 | 71 | 1.1 | 660 | 2100 | 550 | 71 | 0.12 | 1000 | 740 | 400 | 1100 | 75 | 0.21 | IC50 [3]: 1700 nM; AUC(0-inf) ([4]; intravenous 10 mg/kg): 4130 ng·h/mL; AUC(0-inf) ([4]; intravenous 20 mg/kg, Phosphate pH 7.4, solution): 12500 ng·h/mL; AUC(0-inf) [6]: 11200 ng·h/mL; IC50 ([8]; TEM-1, 30 min pre-incubation, nitrocefin 100 μM, read-out: IC50): 0.22 nM |
| N#C[C@@H]1CC[C@@H]2CN1C(=O)N2OC(F)(F)C(=O)[O-].[Na+] [AF2, sodium 2-[[(2S,5R)-2-cyano-7-oxo-1,6-diazabicyclo[3.2.1]octan-6-yl]oxy]-2,2-difluoro-acetate] | 11 | 12 | 4 | 1.1 | 140 | 12 | 54 | 3.1 | 1.4 | 13 | 70 | 2.1 | 11 | 0.7 | 0.16 | IC50 ([3]; OXA-51, 30 min pre-incubation, nitrocefin 100 μM): 51 nM; IC50 [8]: 0.96 nM; MIC ([20]; PMI UFR127, alone): >32 µg/mL; MIC ([20]; Proteus mirabilis): > 32 µg/mL; MIC [21]: > 32 µg/mL; MIC [22]: > 32 µg/mL; MIC ([23]; ECO 190317): > 32 µg/mL; MIC ([23]; ECO 190457): 16 µg/mL; MIC ([23]; ECO UFR16): > 32 µg/mL; MIC ([23]; ECO UFR20): > 32 µg/mL; MIC ([23]; ECO UFR61O): > 32 µg/mL; MIC ([23]; ECO UFR209): 32 µg/mL; MIC [24]: > 32 µg/mL; MIC ([25]; KPN 131119, alone): >32 µg/mL; MIC ([25]; KPN 190270, alone): >32 µg/mL; MIC ([25]; KPN UFR25, alone): >32 µg/mL; MIC ([25]; KPN UFR66, alone): >32 µg/mL; MIC ([25]; KPN UFR68, alone): >32 µg/mL; MIC ([25]; Klebsiella pneumoniae): > 32 µg/mL; MIC [26]: > 32 µg/mL |
